From ChEMBL document CHEMBL1136662, “Synthesis and properties of 11-(3,5-di-tert-butyl-2-hydroxyphenylcarbamoyl)undecanoic acid, a new amphiphilic antioxidant” (Bioorg Med Chem Lett, 2003)

Experiment: Hydrophobicity was determined
Type: ADME

k' | Structure (SMILES)
0.38 | CC(C)(C)c1cc(NC(=O)CCCCCCCCC(=O)O)c(O)c(C(C)(C)C)c1
7.13 | CCCCCCCCCC(=O)Nc1cc(C(C)(C)C)cc(C(C)(C)C)c1O
12.6 | CCCCCCCCCCCC(=O)Nc1cc(C(C)(C)C)cc(C(C)(C)C)c1O
25.2 | CCCCCCCCCCCCCC(=O)Nc1cc(C(C)(C)C)cc(C(C)(C)C)c1O
6.39 | COCCCCCCCCCCCC(=O)Nc1cc(C(C)(C)C)cc(C(C)(C)C)c1O
